“Also recorded” adds a separate entry of the source.

Assay [1] concerns STING. Type of assay: cell-based, mouse.
Assay [2] deals with STING. Type of assay: cell-based, mouse. The source holds these as a separate data set.
The subject of assay [3] is STING. Type of assay: cell-based, mouse. The source holds these as a separate data set.
Assay [4] concerns STING. In kind it is cell-based, mouse. The source holds these as a separate data set.
Assay [5] has as its system THP1-Blue-ISG reporter cells. Type of assay: cell-based.

As for `Nc1nc2c(ncn2[C@@H]2O[C@@H]3COP(=O)(O)O[C@H]4[C@@H](O)[C@H](n5cnc6c(N)ncnc65)O[C@@H]4COP(=O)(O)O[C@@H]2[C@@H]3O)c(=O)[nH]1` [cGAMP, 2′3′-cGAMP], in assay [1], the “STING agonism evidenced by induction of a variety of inflammatory genes” value is “agonists of STING”.

As for `Nc1ncnc2c1ncn2[C@@H]1O[C@@H]2COP(=O)(O)O[C@H]3[C@@H](O)[C@H](n4cnc5c(N)ncnc54)O[C@@H]3COP(=O)(O)O[C@H]2[C@H]1O` [c-di-AMP], the induction of nitrite entry in assay [2] is on record as “more potent induction”. The “induction of IFNß” value in assay [3] is given as “more potent induction”. Moreover, the “STING agonism evidenced by induction of a variety of inflammatory genes” value in assay [1] is recorded as “agonists of STING; also recorded: stronger activation”. Also, the “STING agonism / activation of the pathway” value in assay [4] is given as “agonists of STING; also recorded: stronger activation”.

B1: CdaA: c-di-AMP cyclase from Listeria monocytogenes, wild type, expressed from plasmid in HEK 293T cells (protein, UniProt Q45589 1-273, looked up)
Cyclic di-AMP synthase CdaA: MAFEDIPFLQYLGNAVDILLVWYVIYKLIMVIRGTKAVQLLKGIVVIVLVRMASQYLGLSTLQWLMDQAITWGFLAIIIIFQPELRRALEQLGRGRFFSRSGTPVEEAQQKTIEAITKAINYMAKRRIGALLTIERDTGMGDYIETGIPLNAKVSSELLINIFIPNTPLHDGAVIMKNNEIAAAACYLPLSESPFISKELGTRHRAAVGISEVTDSLTIIVSEETGGVSVAKNGDLHRELTEEALKEMLEAEFKKNTRDTSSNRWYWRGKKNG
In the case of B1, the “SEAP activity (activation of interferon signaling)” value in assay [5] was “displayed activity”.

The record behind these values is patent US20240245804A1 (priority 2021, published 2024).
